Like-named read-outs stand apart in the source and are kept apart here. Values belong to the molecule of their own block, whether it stands above or below them.
Tests used:
WSU-DLCL2 cells = assay: Cell proliferation assay, WSU-DLCL2; type: cell-based; conditions: Homo sapiens, WSUDLCL2; WSU-DLCL2 cells, cultured to the 9th day; read-out: Anti-proliferation IC50
Protocol: (§1) Human B-cell non-Hodgkin's lymphoma cells WSU-DLCL2, Karpas422 and Pfeiffer were cultured in cell culture flasks in a sterile incubator with 95% relative humidity and 5% CO2 at 37° C. The medium was RPMI-1640 (Gibco, product No. 31800022) containing 15% fetal bovine serum (FBS, Gibco, product No. 10099141) and 0.1% penicillin/streptomycin solution (P/S). In order to assay the effects of compounds on cell proliferation, cells in exponential growth phase were seeded into a 12-well plate (Nunc, product No. 150628) with 1 mL of medium per well, wherein WSU-DLCL2 and Karpas422 were seeded at a density of 1×10^5 cells/well, and Pfeiffer was seeded at a density of 2×10^5 cells/well. At the same time, different concentrations of compounds were added to the wells that had seeded with cells (6 concentrations were set for each compound at 3-fold serial dilution), and the final concentration of DMSO was 0.1%. After that, the number of viable cells was determined by Vi-CELL (Beckman Coulter) for WSU-DLCL2 and Pfeiffer every 3 days, and for Karpas422 on days 4, 7, and 11, respectively. The cells counted each time were seeded into a new 12-well plate at the same density, and supplemented with fresh medium to 1 mL. Different concentrations of compounds were added at the same time. WSU-DLCL2 and Pfeiffer were cultured to the 9th day, and Karpas422 was cultured to the 14th day. Cell data were collected uniformly, and analyzed with GraphPad prisim5. Dose curves were fitted, and IC50 values of the assay compounds were obtained.

[1] = tested on: cellular H3K27 methylation; assay: Cellular H3K27 methylation assay (Western blot of H3K27me3 in HeLa cells); type: cell-based; conditions: Homo sapiens, 72 h; HeLa cells, 3 days, H3K27me3 level by Western blot; read-out: PD IC50
[2] = Pharmacokinetic study in rats; type: in vivo, SD rats; conditions: rat; for AUC(0-inf) / Cmax / Tmax / clearance / half-life / MRT inf: male, SD, plasma; for MRT inf: read-out: MRT0-∞
Protocol: Six SPF SD rats, male, weighing 180-220 g, were randomly divided into 2 groups with 3 rats in each group. The compounds of the present disclosure were administered by oral gavage (PO) and intravenous injection (IV), respectively, and the assay compounds were formulated with a vehicle (5% DMSO+10% Solutol+85% pH 4.65 Acetate buffer).
Dosage: 1 mg/kg for intravenous injection and 2 mg/kg for oral administration.
Dosing volume: 5 mL/kg for intravenous injection and 10 mL/kg for oral administration.
The oral administration group was fasted overnight (10-14 h) before the assay, and drank water freely. After 4 hours of administration, they were fed uniformly. They were weighed before administration, and the dosage was calculated according to the body weight.
Intravenous administration: 0.083, 0.25, 0.5, 1, 2, 4, 6, 8, 10 and 24 h after administration;
Oral gavage administration: 0.25, 0.5, 1, 2, 4, 6, 8, 10, 12 and 24 h after administration;
Blood was collected from the jugular vein of rats at the above set time points, about 0.2 mL each time. The blood was anticoagulated with heparin sodium, placed on ice after collection, and centrifuged within 1 hour to separate the plasma (centrifugation conditions: 6800 g, 6 minutes, 2-8° C.). Plasma samples were stored in a −80° C. freezer prior to analysis.
The concentration of each compound in rat plasma was determined by LC/MS/MS method.
Through the plasma drug concentration data at different time points, pharmacokinetic parameters were calculated using Phoenix WinNonlin 7.0, thereby providing parameters such as AUC0-t, AUC0-∞, MRT0-∞, Cmax, Tmax, and T1/2 and mean and standard deviation thereof.

Karpas422 cells = assay: Cell proliferation assay, Karpas422; type: cell-based; conditions: Homo sapiens, KARPAS-422; Karpas422 cells, cultured to the 14th day; read-out: Anti-proliferation IC50
Protocol: as §1

Pfeiffer cells = assay: Cell proliferation assay, Pfeiffer; type: cell-based; conditions: Homo sapiens, cultured to the 9th day, read-out: Anti-proliferation IC50
Protocol: as §1

IC50 [1]: 0.0153 µM
AUC(0-inf) ([2]; IV, 1 mg/kg): 0.857 µg·h/mL
Cmax ([2]; IV, 1 mg/kg): 0.75 µg/mL
Tmax ([2]; IV, 1 mg/kg): 0.08 h
clearance ([2]; IV, 1 mg/kg): 1.17 L/h/kg
half-life ([2]; IV, 1 mg/kg): 0.92 h
MRT inf ([2]; IV, 1 mg/kg): 1.1 h
AUC(0-inf) ([2]; PO, 2 mg/kg): 0.706 µg·h/mL
Cmax ([2]; PO, 2 mg/kg): 0.222 µg/mL
Tmax ([2]; PO, 2 mg/kg): 0.42 h
half-life ([2]; PO, 2 mg/kg): 1.72 h
MRT inf ([2]; PO, 2 mg/kg): 2.94 h
F ([2]; PO, 2 mg/kg): 40.87%
SMILES: CCN(C(=O)C1CC1)c1cnc(NCc2c(F)ccc3c2CCO3)n2cnnc12 [HJM-079]
IC50 (WSU-DLCL2 cells): 0.0368 µM

IC50 [1]: 0.0299 µM
SMILES: CN(C)CCC(=O)Nc1cnc(NCc2c(F)ccc3c2CCO3)n2cnnc12 [HJM-082]
IC50 (WSU-DLCL2 cells): 0.124 µM

IC50 [1]: 0.0285 µM
SMILES: COCC(=O)Nc1cnc(NCc2c(F)ccc3c2CCO3)n2cnnc12 [HJM-083]
IC50 (WSU-DLCL2 cells): 0.028 µM

IC50 [1]: 0.084 µM
SMILES: COCCOCC(=O)Nc1cnc(NCc2c(F)ccc3c2CCO3)n2cnnc12 [HJM-084]
IC50 (WSU-DLCL2 cells): 0.0869 µM

IC50 [1]: 0.0543 µM
SMILES: Fc1ccc2c(c1CNc1ncc(OC3COC3)c3nncn13)CCO2 [HJM-100]
IC50 (WSU-DLCL2 cells): 0.0548 µM

IC50 [1]: 0.0395 µM
SMILES: Fc1ccc2c(c1CNc1ncc(OCC3CCCO3)c3nncn13)CCO2 (centres unmarked) [HJM-101]
IC50 (WSU-DLCL2 cells): 0.0526 µM

IC50 [1]: 0.0327 µM
IC50 (Karpas422 cells): 0.0993 µM
AUC(0-inf) ([2]; IV, 1 mg/kg): 1.14 µg·h/mL
Cmax ([2]; IV, 1 mg/kg): 1.18 µg/mL
Tmax ([2]; IV, 1 mg/kg): 0.08 h
clearance ([2]; IV, 1 mg/kg): 0.886 L/h/kg
half-life ([2]; IV, 1 mg/kg): 1.98 h
MRT inf ([2]; IV, 1 mg/kg): 1.4 h
AUC(0-inf) ([2]; PO, 2 mg/kg): 1.89 µg·h/mL
Cmax ([2]; PO, 2 mg/kg): 0.369 µg/mL
Tmax ([2]; PO, 2 mg/kg): 1.5 h
half-life ([2]; PO, 2 mg/kg): 1.68 h
MRT inf ([2]; PO, 2 mg/kg): 3.55 h
F ([2]; PO, 2 mg/kg): 82.62%
SMILES: Fc1ccc2c(c1CNc1ncc(OCC3CCOC3)c3nncn13)CCO2 (centres unmarked) [HJM-102]
IC50 (WSU-DLCL2 cells): 0.0251 µM
IC50 (Pfeiffer cells): 0.0474 µM

IC50 [1]: 0.0942 µM
SMILES: Fc1ccc2c(c1CNc1ncc(OCC3CCO3)c3nncn13)CCO2 (centres unmarked) [HJM-103]
IC50 (WSU-DLCL2 cells): 0.148 µM

IC50 [1]: 0.0294 µM
AUC(0-inf) ([2]; IV, 1 mg/kg): 1.91 µg·h/mL
Cmax ([2]; IV, 1 mg/kg): 1.6 µg/mL
Tmax ([2]; IV, 1 mg/kg): 0.08 h
clearance ([2]; IV, 1 mg/kg): 0.53 L/h/kg
half-life ([2]; IV, 1 mg/kg): 1.82 h
MRT inf ([2]; IV, 1 mg/kg): 1.56 h
AUC(0-inf) ([2]; PO, 2 mg/kg): 1.79 µg·h/mL
Cmax ([2]; PO, 2 mg/kg): 0.342 µg/mL
Tmax ([2]; PO, 2 mg/kg): 2.83 h
half-life ([2]; PO, 2 mg/kg): 1.41 h
MRT inf ([2]; PO, 2 mg/kg): 3.29 h
F ([2]; PO, 2 mg/kg): 47.22%
SMILES: CC1(COc2cnc(NCc3c(F)ccc4c3CCO4)n3cnnc23)COC1 [HJM-105]
IC50 (WSU-DLCL2 cells): 0.0354 µM

IC50 [1]: 0.0577 µM
SMILES: CC(Oc1cnc(NCc2c(F)ccc3c2CCO3)n2cnnc12)C1COC1 (centres unmarked) [HJM-106]
IC50 (WSU-DLCL2 cells): 0.0398 µM

IC50 [1]: 0.068 µM
SMILES: CN1CC(Oc2cnc(NCc3c(F)ccc4c3CCO4)n3cnnc23)C1 [HJM-114]
IC50 (WSU-DLCL2 cells): 0.211 µM

IC50 [1]: 0.062 µM
SMILES: COCCOc1cnc(NCc2c(F)ccc3c2CCO3)n2cnnc12 [HJM-137]
IC50 (WSU-DLCL2 cells): 0.0514 µM

IC50 [1]: 0.0498 µM
SMILES: COCCCOc1cnc(NCc2c(F)ccc3c2CCO3)n2cnnc12 [HJM-138]
IC50 (WSU-DLCL2 cells): 0.0432 µM

SMILES: N#CCOc1cnc(NCc2c(F)ccc3c2CCO3)n2cnnc12 [HJM-145]
IC50 (WSU-DLCL2 cells): 0.0473 µM
IC50 [1]: 0.0328 µM

IC50 [1]: 0.0732 µM
SMILES: COCCN(C)C(=O)c1cnc(NCc2c(F)ccc3c2CCO3)n2cnnc12 [HJM-152]
IC50 (WSU-DLCL2 cells): 0.106 µM

From patent US12552796B2, “EED inhibitor, and preparation method therefor and use thereof” (SHANGHAITECH UNIVERSITY, priority 2019, dated 2026)
